{
  "source": "patent US20220017486A1",
  "about": "“DOCK1-INHIBITING COMPOUND AND USE THEREOF” (KYUSHU UNIVERSITY, NATIONAL UNIVERSITY CORPORATION, priority 2018, published 2022)",
  "key": {"[1]": {"system": "mouse lung carcinoma cell line (3LL cells)", "assay": "Cell invasion inhibition assay (Matrigel invasion chamber)", "type": "cell-based", "conditions": "in words", "procedure": "In this Pharmacological Test, the inhibitory effect of each test compound on cell invasion response was evaluated using a mouse lung carcinoma cell line (3LL cells), a mouse pancreatic cancer cell line (PANC02 cells), and a human breast cancer cell line (MDA-MB-157 cells). Of these, the mouse lung carcinoma cell line (3LL) is a cancer cell line with mutant Ras (K-Ras (G12C)), and the human breast cancer cell line (MDA-MB-157) is a cancer cell line with mutant Rac (Rac1 (P29S)). The experiments were performed in BD BioCoat Matrigel invasion chambers (BD Biosciences).\nSpecifically, an upper chamber with a Matrigel-coated membrane insert (8 μm pores) at the bottom was equilibrated with DMEM (serum-free medium) for 120 minutes. Thereafter, 300 μL of a suspension of a cancer cell line in DMEM (serum-free) was placed in the upper chamber while 500 μL of DMEM (with 10 mass % FCS) was placed in the lower chamber. Each test compound dissolved in DMSO at a predetermined concentration was added to both the culture media in the upper and lower chambers. As a control, DMSO alone was added to both the culture media in the upper and lower chambers. In all of the experiments, the final DMSO concentration in the culture media was adjusted to 0.2 mass %.\nThe resulting products were cultured under 5% CO2 at 37° C. for 22 hours (3LL and PANC02 cells) or 48 hours (MDA-MB-157 cells). Then, the upper chamber was removed, and the culture medium was removed. Thereafter, non-invading cells remaining in the upper chamber were removed using a cotton swab, and the cells remaining outside the bottom of the upper chamber (cells that had invaded into the Matrigel, and passed through the membrane insert) were stained with Diff-Quick (Sysmex). After staining, the membrane inserts with Matrigel were cut out using a scalpel to prepare slides, and the number of invading cells was counted under an optical microscope.\nThe results were evaluated based on percent cell invasion (%: Invasion) and percent inhibition (%: Inhibition). The percent cell invasion was obtained by converting the number of invading cells in the presence of each test compound into a percentage, taking the number of invading cells in the control test, in which DMSO was added alone, as 100%; and the percent inhibition was obtained by deducting the percent cell invasion from 100."}, "DOCK1 (DHR-2 domain)": {"target": "T1, DOCK1 (DHR-2 domain) (Homo sapiens, UniProt Q14185)", "T1 construct": "polypeptide fragments corresponding to the DHR-2 domain of DOCK1 or DOCK2 from mice and humans; Histidine-SUMO (N); made in house; host or cells: E. coli Arctic express (DE3)", "T1 sequence (Q14185 1207-1617 limits assumed)": "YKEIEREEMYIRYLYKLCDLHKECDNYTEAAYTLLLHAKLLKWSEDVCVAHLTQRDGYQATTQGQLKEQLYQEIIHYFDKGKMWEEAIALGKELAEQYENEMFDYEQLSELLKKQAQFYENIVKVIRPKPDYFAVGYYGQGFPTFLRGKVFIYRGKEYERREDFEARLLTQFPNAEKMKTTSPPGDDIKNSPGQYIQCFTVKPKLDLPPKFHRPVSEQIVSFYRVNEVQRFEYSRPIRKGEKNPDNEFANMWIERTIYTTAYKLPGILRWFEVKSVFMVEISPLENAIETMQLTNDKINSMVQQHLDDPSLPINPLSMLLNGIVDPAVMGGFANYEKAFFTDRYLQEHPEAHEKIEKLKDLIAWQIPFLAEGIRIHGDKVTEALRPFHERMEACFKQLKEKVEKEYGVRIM", "assay": "In vitro GEF assay: Rac activation by DOCK1 DHR-2 domain", "type": "biochemical, mice and humans", "conditions": "in words; for selective inhibitory activity against DOCK1 versus DOCK2: GEF assay DOCK1 vs DOCK2 DHR-2 domain; for DOCK1-inhibiting activity compared with TBOPP / selective inhibitory activity against DOCK1 compared to TBOPP: GEF assay", "procedure": "DOCK1 and DOCK2, i.e., DOCK-A subfamily members, both activate Rac by catalyzing the GTP-GDP exchange reaction for Rac via their DHR-2 domains. Therefore, in this Pharmacological Test, the inhibitory effect of the compounds of the present invention on Rac activation by DOCK1 or DOCK2 was assessed in an in vitro GEF assay by using polypeptide fragments corresponding to the DHR-2 domain of DOCK1 or DOCK2 from mice and humans. The in vitro GEF assay was performed using a labeled GTP (Bodipy-FL-GTP, Invitrogen), which has a property of increasing the fluorescence intensity when bound to Rac.\nThe polypeptide fragments corresponding to the DHR-2 domain of DOCK1 or DOCK2 were prepared by expression in E. coli Arctic express (DE3) cells as N-terminal. Histidine-SUMO tag-fused recombinant proteins, followed by purification by affinity column chromatography on nickel-NTA columns.\nRac was prepared by expression in E. coli BL21 (DE3) cells as an N-terminal GST tag-fused recombinant protein, followed by purification by affinity column chromatography on glutathione-Sepharose columns.\nEach of the polypeptide fragments corresponding to the DHR-2 domain of DOCK1 or DOCK2, and a predetermined concentration of each test compound (the compounds of the present invention: 33 types of compounds; and comparative compound: TBOPP) dissolved in DMSO were incubated in a reaction solution A (pH 7.0), which contained 20 mM of MES-NaOH, 150 mM of NaCl, 10 mM of MgCl2, and 20 μM of GDP for 20 minutes at room temperature while being shielded from light to thus prepare GEF pretreated products. The final concentration of DMSO was adjusted to 1 mass % in all of the test samples. For a control test, a GEF pretreated product (control) was prepared by incubation in the same manner using DMSO with no test compounds, instead of the DMSO used above in which each test compound was dissolved.\nSeparately, Rac was added to the reaction solution A (pH 7.0) to a concentration of 15 μM, and was allowed to stand on for 30 min to form a GDP-Rac complex. Bodipy-FL-GTP was added to a concentration of 3.6 μM to 100 μL of the reaction solution A that contained the thus-prepared GDP-Rac complex, and equilibrated at 30° C. for 2 minutes. After equilibration, 50 μL of the GEF pretreated product prepared as described above was added and reacted at 30° C.\nChanges in fluorescence intensity of Bodipy-FL-GTP in the reaction solutions were monitored using an EnSpire spectrofluorometer (Perkin Elmer) (excitation wavelength: 488 nm, fluorescence wavelength: 514 nm). The measured values were corrected so that the fluorescence intensity at the beginning of the reaction (0 sec) was 0. Then, an approximate curve (hyperbola) was obtained by plotting the calculated correction values on the y-axis and the time (t) on the x-axis using GraphPad Prism5 (GraphPad software), and the slope at t=0 to 10 seconds was defined as the initial velocity of the guanine nucleotide exchange reaction. The IC50 value was calculated taking the initial reaction velocity of the control, to which only a solvent (DMSO) was added, as 100%.\nBased on the obtained results, columns A and B of FIG. 1, FIG. 2, FIG. 3-1, and FIG. 3-2 show the results evaluating the inhibitory effect on Rac activation by DOCK1 (DHR-2 domain) (IC50 value), and DOCK1-selective inhibitory effect (DOCK1/DOCK2 selectivity) of each test compound. The inhibitory effect on Rac activation by DOCK1 (DHR-2 domain) (IC50 value) was determined from the reaction inhibition curve plotted using values of Rac activation by the DOCK1 DHR-2 domain in the presence of various concentrations of the test compounds, taking the values of the control as 100%. […]"}},
  "data": [
    {"smiles": "O=C(Cn1cc(S(=O)(=O)N2CCCC2)ccc1=O)c1ccc(-c2cccc(C(F)(F)F)n2)cc1", "note": "[KS-22, 1-(2-oxo-2-(4-(6-(trifluoromethyl)pyridin-2-yl)phenyl)ethyl)-5-(pyrrolidin-1-yl-sulfonyl)pyridin-2(1H)-one]", "values": [
      {"measurement": "percent cell invasion inhibition compared with TBOPP", "setting": "[1]", "result": "higher percent cell invasion inhibition than TBOPP"}
    ]},
    {"smiles": "CCCCCCOc1cc(-c2cccc(C(F)(F)F)c2)ccc1C(=O)C(CCCCCC)n1cc(S(=O)(=O)N2CCCC2)ccc1=O", "note": "(stereo not drawn) [AK-23, 1-(1-(3-(hexyloxy)-3′-(trifluoromethyl)-[1,1′-biphenyl]-4-yl)-1-oxooctan-2-yl)-5-(pyrrolidin-1-yl-sulfonyl)pyridin-2(1H)-one]", "values": [
      {"measurement": "selective inhibitory activity against DOCK1 versus DOCK2", "setting": "DOCK1 (DHR-2 domain)", "result": "higher selective inhibitory activity against DOCK1 than against DOCK2"}
    ]},
    {"smiles": "O=S(=O)(c1cc(CO)n(CC(O)c2ccc(-c3cccc(C(F)(F)F)c3)cc2)c1)N1CCCC1", "note": "(stereo not drawn) [HS-14, 2-(2-(hydroxymethyl)-4-(pyrrolidin-1-yl-sulfonyl)-1H-pyrrol-1-yl)-1-(3′-(trifluoromethyl)-[1,1′-biphenyl]-4-yl)ethan-1-ol]", "values": [
      {"measurement": "DOCK1-inhibiting activity compared with TBOPP", "setting": "DOCK1 (DHR-2 domain)", "result": "slightly lower DOCK1-inhibiting activity"},
      {"measurement": "selective inhibitory activity against DOCK1 compared to TBOPP", "setting": "DOCK1 (DHR-2 domain)", "result": "higher selective inhibitory activity against DOCK1"},
      {"measurement": "selective inhibitory activity against DOCK1 versus DOCK2", "setting": "DOCK1 (DHR-2 domain)", "result": "higher selective inhibitory activity against DOCK1 than against DOCK2"}
    ]},
    {"smiles": "O=C(Cn1cc(S(=O)(=O)N2CCC(c3ccc(-c4ccc5c(c4)Cc4ccccc4-5)cc3)CC2)ccc1=O)c1ccc(-c2cccc(C(F)(F)F)c2)cc1", "note": "[KS-46, 5-((4-(4-(9H-fluoren-2-yl)phenyl)piperidin-1-yl)sulfonyl)-1-(2-oxo-2-(3′-(trifluoromethyl)-[1,1′-biphenyl]-4-yl)ethyl)pyridin-2(1H)-one]", "values": [
      {"measurement": "selective inhibitory activity against DOCK1 versus DOCK2", "setting": "DOCK1 (DHR-2 domain)", "result": "higher selective inhibitory activity against DOCK1 than against DOCK2"}
    ]},
    {"smiles": "O=C(Cn1cc(S(=O)(=O)N2CCC(c3ccc(-c4ccccc4)cc3)CC2)ccc1=O)c1ccc(-c2cccc(C(F)(F)F)c2)cc1", "note": "[KS-43, 5-((4-([1,1′-biphenyl]-4-yl)piperidin-1-yl)sulfonyl)-1-(2-oxo-2-(3′-(trifluoromethyl)-[1,1′-biphenyl]-4-yl)ethyl)pyridin-2(1H)-one]", "values": [
      {"measurement": "selective inhibitory activity against DOCK1 versus DOCK2", "setting": "DOCK1 (DHR-2 domain)", "result": "higher selective inhibitory activity against DOCK1 than against DOCK2"}
    ]},
    {"smiles": "O=C(Cn1cc(S(=O)(=O)N2CCC(c3ccc(-c4c5ccccc5cc5ccccc45)cc3)CC2)ccc1=O)c1ccc(-c2cccc(C(F)(F)F)c2)cc1", "note": "[KS-47, 5-((4-(4-(anthracen-9-yl)phenyl)piperidin-1-yl)sulfonyl)-1-(2-oxo-2-(3′-(trifluoromethyl)-[1,1′-biphenyl]-4-yl)ethyl)pyridin-2(1H)-one]", "values": [
      {"measurement": "selective inhibitory activity against DOCK1 versus DOCK2", "setting": "DOCK1 (DHR-2 domain)", "result": "higher selective inhibitory activity against DOCK1 than against DOCK2"}
    ]},
    {"smiles": "CC1(C)Oc2cc(-c3cccc(C(F)(F)F)c3)ccc2C(Cn2cc(S(=O)(=O)N3CCCC3)ccc2=O)O1", "note": "(stereo not drawn) [AK-17, 1-((2,2-dimethyl-7-(3-(trifluoromethyl)phenyl)-4H-benzo[d][1,3]dioxin-4-yl)methyl)-5-(pyrrolidin-1-yl-sulfonyl)pyridin-2(1H)-one]", "values": [
      {"measurement": "selective inhibitory activity against DOCK1 versus DOCK2", "setting": "DOCK1 (DHR-2 domain)", "result": "higher selective inhibitory activity against DOCK1 than against DOCK2"}
    ]},
    {"smiles": "O=C(Cn1cc(S(=O)(=O)N2CCCC2)ccc1=O)c1ccc(-c2cccc(C(F)(F)F)c2)cc1OCCc1ccccc1", "note": "[AK-24, 1-(2-oxo-2-(3-phenethoxy-3′-(trifluoromethyl)-[1,1′-biphenyl]-4-yl)ethyl)-5-(pyrrolidin-1-yl-sulfonyl)pyridin-2(1H)-one]", "values": [
      {"measurement": "selective inhibitory activity against DOCK1 versus DOCK2", "setting": "DOCK1 (DHR-2 domain)", "result": "higher selective inhibitory activity against DOCK1 than against DOCK2"}
    ]},
    {"smiles": "O=C(Cn1cc(S(=O)(=O)N2CCCC2)ccc1=O)c1ccc(-c2cccc(C(F)(F)F)c2)cc1O", "note": "[AK-15, 1-(2-(3-hydroxy-3′-(trifluoromethyl)-[1,1′-biphenyl]-4-yl)-2-oxoethyl)-5-(pyrrolidin-1-yl-sulfonyl)pyridin-2(1H)-one]", "values": [
      {"measurement": "selective inhibitory activity against DOCK1 versus DOCK2", "setting": "DOCK1 (DHR-2 domain)", "result": "higher selective inhibitory activity against DOCK1 than against DOCK2"}
    ]},
    {"smiles": "O=c1ccc(S(=O)(=O)N2CCCC2)cn1CC(O)c1ccc(-c2cccc(C(F)(F)F)c2)cc1O", "note": "(stereo not drawn) [AK-16, 1-(2-hydroxy-2-(3-hydroxy-3′-(trifluoromethyl)-[1,1′-biphenyl]-4-yl)ethyl)-5-(pyrrolidin-1-yl-sulfonyl)pyridin-2(1H)-one]", "values": [
      {"measurement": "DOCK1-inhibiting activity compared with TBOPP", "setting": "DOCK1 (DHR-2 domain)", "result": "slightly lower DOCK1-inhibiting activity"},
      {"measurement": "selective inhibitory activity against DOCK1 compared to TBOPP", "setting": "DOCK1 (DHR-2 domain)", "result": "higher selective inhibitory activity against DOCK1"}
    ]},
    {"smiles": "CN(C)C(=O)c1cc(S(=O)(=O)N2CCCC2)cn1CC(=O)c1ccc(-c2cccc(C(F)(F)F)c2)cc1", "note": "[RT-23, N,N-dimethyl-1-(2-oxo-2-(3′-(trifluoromethyl)-[1,1′-biphenyl]-4-yl)ethyl)-4-(pyrrolidin-1-yl-sulfonyl)-1H-pyrrole-2-carboxamide]", "values": [
      {"measurement": "selective inhibitory activity against DOCK1 versus DOCK2", "setting": "DOCK1 (DHR-2 domain)", "result": "higher selective inhibitory activity against DOCK1 than against DOCK2"}
    ]},
    {"smiles": "CC(=O)Oc1cc(-c2ccc(-c3cccc(C(F)(F)F)c3)cc2)cn2cc(S(=O)(=O)N3CCCC3)cc12", "note": "[HS-20, 2-(pyrrolidin-1-yl-sulfonyl)-6-(3′-(trifluoromethyl)-[1,1′-biphenyl]-4-yl)-indolizin-8-yl acetate]", "values": [
      {"measurement": "selective inhibitory activity against DOCK1 versus DOCK2", "setting": "DOCK1 (DHR-2 domain)", "result": "higher selective inhibitory activity against DOCK1 than against DOCK2"}
    ]}
  ]
}
